Measured values from patent US20180140572A1, “COMPOSITIONS COMPRISING A CANCER STEMNESS INHIBITOR AND AN IMMUNOTHERAPEUTIC AGENT FOR USE IN TREATING CANCER” (Boston Biomedical, Inc., priority 2015, published 2018).

Columns and labels:
CT26 tumor cells = assay: Tumor sphere formation of cells dissociated from treated CT26 tumors; assay type: cell-based, mouse; details: 1000 live tumor cells from treated tumors, 10 days in culture, vs control
Method: Portions of tumor tissues were dissociated into a single cell suspension by enzymatic digestion with DMEM (Gibco) containing 200 U/mL Collagenase (Sigma) and 100 U/mL DNAse I (Sigma) at 37° C. for 30 minutes. Cells were then filtered through 40 μm strainers and incubated for 5 min at room temperature in ACK lysis buffer (Thermo Fisher) to remove red blood cells. 1000 live tumor cells, as assessed by Trypan blue (Gibco) staining, were then suspended in 1 mL sphere medium and plated on a low-attachment cell culture 12-well plate in triplicate. Cancer sphere culture medium included B-27 (Gibco), 20 ng/ml EGF (R&D), 10 ng/ml basicFGF (R&D), 0.4% BSA Gemini, and 0.3% agarose in DMEM/F12 (Gibco). After 10 days in culture, the number of tumor spheres was counted.

NANOG, CD44, and CD133 = assay: Stemness marker expression in CT26 tumors (immunofluorescence); assay type: in vivo, mouse; details: basal and anti-PD-1 antibody-induced
Method: (§1) At the end of treatment, tumors were harvested from euthanized mice. Part of the dissected tumors were fixed overnight in 3.7% or 10% neutral buffered formaldehyde at 4° C., and then paraffin embedded, cut to 4-5 micron sections, and affixed onto positively charged slides. After baking and deparaffinization, the slides with tumor or control tissues were incubated in a 10 mM sodium citrate solution pH=6.0 for antigen retrieval at 98° C. Afterwards, slides were probed with primary antibodies against P-STAT3 (Tyr705) (rabbit, Cell Signaling, 1:100), β-CATENIN (mouse, Santa Cruz, 1:400), IL-6 (mouse, Novus Biol., 1:100), PD-L1 (rabbit, Cell Signaling, 1:100), PCNA (mouse, Santa Cruz, 1:5000), CD8a (rabbit, Santa Cruz, 1:30), CD44 (rat, BioLegend, 1:50), CD44 (mouse, Cell Signaling, 1:100), CD133 (mouse, Miltenyi, 1:100), IDO1 (mouse, Millipore 1:100), or/and CD3 (rabbit, Abcam, 1:100) at 4° C. overnight, and then AlexaFluor fluorescent dye-conjugated secondary antibodies (Invitrogen, 1:300 or 1:500) at room temperature for one hour. After mounting in ProLong mounting medium containing DAPI (Invitrogen), the slides were examined on a Zeiss Axio Imager M2 upright fluorescence microscope with a 20× objective and analyzed with Zen software.

IL-6 = IL-6 protein production by HeLa cells; assay type: cell-based; details: different concentrations
CD44 = CD44 protein expression in ovarian cancer xenograft model (SKOV-3); assay type: in vivo, mouse; details: SKOV-3 xenograft, 0, 1, 2, 4, 8, 16, or 24 hours after treatment
Method: as §1

[1] = test system: tumor-infiltrating T cells (TILs); assay: Tumor-infiltrating T cells in CT26 tumors (CD3 immunofluorescence); assay type: in vivo, mouse; details: vs control tumors
Text: All BALB/c mice (Taconic, Hudson, N.Y., USA) were housed in Association for Assessment and Accreditation of Laboratory Animal Care approved facilities in static microisolator cages. Murine MSS-status colon carcinoma CT26 cells (ATCC CRL-2639) and murine breast carcinoma cells 4T1 (ATCC CRL-2539) were purchased from American Type Culture Collection (ATCC, Manassas, Va., USA), and grown in RPMI-1640 medium (ATCC) supplemented with 10% heat-inactivated fetal calf serum. After harvesting during exponential growth, tumors were initiated by subcutaneously implanting 3×10^5 CT26 tumor cells into the right dorsal flank of each 8-12 week old female BALB/c mouse. […] Body weight and clinical signs were monitored throughout the course of the treatment in accordance with the Institutional Animal Care and Use Committee approved protocols. Drug efficacy was analyzed by measuring tumor volume in mm^3 calculated by multiplying 0.5×width^2×length. […]
At the end of treatment, tumors were harvested from euthanized mice. […] After mounting in ProLong mounting medium containing DAPI (Invitrogen), the slides were examined on a Zeiss Axio Imager M2 upright fluorescence microscope with a 20× objective and analyzed with Zen software.

[2] = test system: CD8^+ T cells producing IFN-γ; assay: Tumor antigen-specific T cell immune response (IFN-γ producing spleen CD8+ T cells); assay type: in vivo, Apc^Min/+ mice; details: in the presence of the tumor antigen, vs control samples
Text: All animals were housed in Association for Assessment and Accreditation of Laboratory Animal Care-approved facilities in static microisolator cages. Testing confirmed the mice were pathogen-free and there was no evidence of murine Helicobacter spp. by culture or PCR. Apc^Min/+ mice on a C57BL/6J background were originally obtained from the Jackson Laboratory (Bar Harbor, Me.) and bred in-house to wild-type (wt) C57BL/6J mice to generate Apc^Min/+. 17 week old Apc^Min/+ mice or matched wild-type controls were treated with either vehicle alone, or BBI608 at 200 mg/kg daily by oral gavage (p.o., q.d.) for 4 consecutive days (n=4/group). Body weight and clinical signs were monitored throughout the course of the treatment. On treatment day 4, the animals were sacrificed 4 hours after the last dose and the tumors in the Apc^Min/+ small intestine or a piece of normal intestine, from wild type controls, were harvested.
Spleen tissues were collected from the above APC^Min/+ mice at the time of tumor harvesting. CD8^+ T cells were separated using a CD8^+ T cells isolation kit according to the manufacturer's protocol (STEMCELL Technology). […] Intracellular IFN-γ was then stained with Alexa-647 labeled rat anti-mouse IFN-γ antibody (1:100, BD) and CD8^+ T cells producing IFN-γ were analyzed under the Zeiss fluorescence microscope described above.

STAT3 pathway = details: read-out: STAT3 pathway activity cellular IC50; cited from earlier work

## CC(=O)c1cc2c(o1)C(=O)c1ccccc1C2=O [BBI608, 2-acetylnaphtho[2,3-b]furan-4,9-dione]
CT26 tumor cells
  number of tumor spheres: significantly lower numbers of spheres than control
NANOG, CD44, and CD133
  NANOG, CD44, and CD133 expression: reduced
IL-6
  IL-6 protein production: downregulated
CD44
  CD44 protein expression: inhibited CD44 protein expression in a time-dependent manner
[1]
  number of tumor-infiltrating T cells (TILs): tended to increase
[2]
  percentage of CD8^+ T cells producing INF-γ: higher percentage
STAT3 pathway
  IC50: ~250 nM
